As usually defined, the Cmax is the peak of the concentration-time curve. A word on the Tmax: it is the time at which the peak concentration occurs. What is called IC50 is the point on the concentration scale where inhibition reaches its midpoint.

This note sets out measurements from publication PMC9021288 (Nature Communications, 2022).

“And” between values parts separate entries of the source, which are not always exact repeats. Equal entries are not always repeated. Where two headings read alike, the source gives them in different places.

The nature of data set [1]: Blood concentration and PK in infected NSG mice after single oral dose. The note with it: for concentration in blood: per mouse. Format: in vivo, mouse. The method, then: The effect of pantothenamides on P. falciparum Pf3D7^0087/N9 [66] in vivo was assessed in female NSG mice (NODscidIL2Rγ^null) at the Swiss Tropical and Public Health Institute (Basel, Switzerland) as described previously (Supplementary Table 30)[15],[67]. Briefly, humanized mice were engrafted daily with human erythrocyte suspensions from days -11 to day 6. After 11 days (day 0), mice were injected intravenously with 3×10^7 infected RBCs in a volume of 0.1 ml. On day 4, groups of n = 2 mice were treated with a single dose pantothenamides or chloroquine (50 mg/kg) by oral gavage. The hematocrit of all dosed mice and an untreated control group (n = 4 mice) was determined by fluorescence-activated cell sorting and parasitemia was analyzed by microscopy on >10,000 RBCs as described before. Samples to quantify compound metabolites were collected and prepared at different time points (1, 2, 4, 6, and 24 h after treatment) for each mouse by mixing 20 µl of whole blood with 20 µl of Milli-Q, followed by immediate freezing of samples on dry ice. […] Serial dilutions were prepared in the same solvent to concentrations 50 times higher than the corresponding CAL and QC concentrations. The concentrations were calculated under consideration of purity and salt factor. The spiking of the CAL and QC sample were performed at room temperature. The eight calibration levels were 5.00, 10.0, 50.0, 100, 500, 1000, 3750, and 5000 ng/mL and three QC levels 15.0, 100, and 3750 ng/mL were analyzed in duplicate, together with the study samples.
For the sample precipitation, to an aliquot of 10 µL mouse blood/water (1/1) study sample, 20 µL of acetonitrile containing the internal standard MMV1542001 at a concentration of 100 ng/mL was added. After vortex mixing, the samples were centrifuged for 10 min at 50,000 g at 8 °C. Subsequently, an aliquot of 20 µL of the supernatant was transferred to an autosampler vial and an aliquot of 5 µL was injected onto the LC-MS/MS system.
The samples were handled by an autosampler CTC PAL (CTC Analytics AG, Zwingen, Switzerland) set at 8 °C. The chromatography column used was a YMC Hydrosphere C18, 2.1 × 33 mm, 3 µm (YMC Co. Ltd., Kyoto, Japan), kept at room temperature. The aqueous mobile phase consisted of water containing 0.1 % formic acid, whereas the organic mobile phase consisted of acetonitrile containing 0.1 % formic acid, pumped by HPLC pump from Agilent 1200 series (Agilent Technologies Inc, Santa Clara, CA, USA). The HPLC gradient was as follows: 95% phase A, 5% phase B for 0.20 min, followed by transition to 5% phase A, 95% phase B in 1 min, 2 min at these concentrations, and a subsequent increase to 95% phase A, 5% phase B in 0.05 min which is kept for the remaining 0.75 min.
The detection of MMV693183 was performed using a TSQ Access mass spectrometer (Thermo Fisher Scientific, San Jose, CA, USA) by selected reaction monitoring. The ion source was heated electrospray ionization, using a negative polarity. Following parameters were used: Voltage 2500 [V], Vaporizer temperature 350 [°C], Sheath gas 60 [au], Auxiliary gas 5 [au], Capillary temperature 350 [°C] and Collision gas pressure 1.0 [mTorr]. […] The transition used for the internal standard was: parent ion 325.030 m/z—daughter ion 195.000 m/z.
The concentration of the analyte was calculated using the internal standardization method. The area ratio of analyte to internal standard against the concentration of calibration samples was used for quantification. The acquisition and processing of data were performed using LCquan 2.5.6 and Xcalibur 2.0.7. Microsoft Office Excel 2007 Prof was used for calculations and statistical evaluation of data. […] The Lower Limit of Quantification was 5.00 ng/mL in […], whereas The Upper Limit of Quantification was 5000 ng/mL in mouse blood/water (1/1).

The test system of data set [2] is P. falciparum NF54 asexual blood-stage parasites. The data set is described as follows: 72-h asexual blood-stage replication assay (SYBR Green). Type of data set: cell-based, Plasmodium falciparum. More on the design: key to asexual blood stages growth, dose-response: % growth; DMSO control = 100%, DHA/epoxomicin-treated = no growth.
The nature of data set [3]: Crystal screening (XRPD). Type of data set: physicochemical. The note with it: 36 conditions. The method, then: Crystal screening for each further characterized pantothenamide was performed by a commercial service (Crystal Pharmatech Co., Ltd.) under 36 conditions using a variety of crystallization methods, including liquid vapor diffusion, slow evaporation, slurry conversion and salt/co-crystal formation and solvents. X-ray power diffraction (XRPD) patterns were collected by Bruker X-ray powder diffractometers.

In data set [1] (50 mg/kg p.o.), `C[C@@H](CNC(=O)[C@H](O)C(C)(C)CO)NC(=O)c1cc(F)c(F)cc1F` [MMV693183] registered an AUC0-24h of 33700 ng·h/mL. This compound returned a Cmax in data set [1] (50 mg/kg p.o.) of 12900 ng/mL. The compound further registered a T1/2 in data set [1] (50 mg/kg p.o.) of 2.49 h. In addition, in data set [1] (50 mg/kg p.o.), the Tmax is 1.50 h. Further, the concentration in blood is 6960 ng/mL and 16200 ng/mL in data set [1] (1 h post treatment); 9660 ng/mL and 7300 ng/mL in data set [1] (2 h post treatment); 2360 ng/mL and 1170 ng/mL in data set [1] (4 h post treatment); 802 ng/mL and 376 ng/mL in data set [1] (6 h post treatment); 10 ng/mL in data set [1] (24 h post treatment). Also, in data set [2], the “in vitro-determined IC99” value was found to be 36.1 nM. Besides, the “asexual blood stages growth, dose-response” value in data set [2] (Log concentration (M) -8.5) was 38.5 and 30.4 and 47.25 and 30.7; in data set [2] (Log concentration (M) -9), 74.05 and 74.55 and 77.05 and 67.5; in data set [2] (Log concentration (M) -9.5), 92.6 and 74.65 and 93.65 and 69.75; in data set [2] (Log concentration (M) -10), 93.45 and 77.05 and 101.75 and 92. The IC50 was 2.8 nM in data set [2] (asexual blood stages NF54 parasites, read-out: IC50); 2.37 nM and 2.81 nM and 2.66 nM and 2.15 nM in data set [2] (per replicate experiment, read-out: IC50, asexual blood stages). Besides, the Crystalline result in data set [3] is “Yes”.
